IC50 data for 16 compounds are collected here from patent publication US20240025887A1, “THIENYL AND CYCLOALKYL AMINOPYRIMIDINE COMPOUNDS AS INHIBITORS OF NUAK KINASES, COMPOSITIONS AND USES THEREOF” (Ontario Institute for Cancer Research (OICR), priority 2021, published 2024).

What all share (assay type): biochemical
One test deals with T1, Aurora A (Homo sapiens, UniProt O14965).
T1 sequence (O14965 1-403): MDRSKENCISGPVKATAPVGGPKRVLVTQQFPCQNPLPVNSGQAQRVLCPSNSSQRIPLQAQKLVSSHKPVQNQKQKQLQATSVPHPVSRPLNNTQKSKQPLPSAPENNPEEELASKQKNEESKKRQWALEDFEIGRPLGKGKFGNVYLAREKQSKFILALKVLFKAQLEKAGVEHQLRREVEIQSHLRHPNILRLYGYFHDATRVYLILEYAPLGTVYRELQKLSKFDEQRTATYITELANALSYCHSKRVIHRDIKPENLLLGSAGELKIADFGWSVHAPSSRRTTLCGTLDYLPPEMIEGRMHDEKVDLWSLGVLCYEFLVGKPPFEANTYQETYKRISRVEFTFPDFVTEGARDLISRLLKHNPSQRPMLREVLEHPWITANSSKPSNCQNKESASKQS
The experiment in a line: Aurora A counter screen. The note with it: read-out: AUR-A (IC50). On the procedure: (§1) To identify small molecule NUAK inhibitors, a biochemical NUAK2 enzymatic assay was outsourced to Eurofins. This assay was done radiometrically using full-length, recombinant enzyme. NUAK2 (h) was incubated with 8 mM MOPS pH 7.0, 0.2 mM EDTA, 300 μM […], 10 mM magnesium acetate and […] (specific activity and concentration as required). The reaction was initiated by the addition of the Mg/ATP mix. After incubation for 40 minutes at room temperature, the reaction was stopped by the addition of phosphoric acid to a concentration of 0.5%. 10 μL of the reaction was then spotted onto a P30 filter mat and washed four times for 4 minutes in 0.425% phosphoric acid and once in methanol prior to drying and scintillation counting. Compounds were routinely counter screened against Aurora A and NUAK1. The results are shown in Table 1 where IC50s are reported the following ranges: A: 0.1-10 nM; B: 11-100 nM; C: 101-1000 nM; D: >1000 nM for the compounds of Formula I)
On the technique in general: The purpose of a counterscreen is to sort out artefacts and off-target activity.

The target in another test is T2, NUAK2 (h) (Homo sapiens, UniProt Q9H093).
T2 construct: This assay was done radiometrically using full-length, recombinant enzyme; purchased Eurofins
T2 sequence (Q9H093 1-628): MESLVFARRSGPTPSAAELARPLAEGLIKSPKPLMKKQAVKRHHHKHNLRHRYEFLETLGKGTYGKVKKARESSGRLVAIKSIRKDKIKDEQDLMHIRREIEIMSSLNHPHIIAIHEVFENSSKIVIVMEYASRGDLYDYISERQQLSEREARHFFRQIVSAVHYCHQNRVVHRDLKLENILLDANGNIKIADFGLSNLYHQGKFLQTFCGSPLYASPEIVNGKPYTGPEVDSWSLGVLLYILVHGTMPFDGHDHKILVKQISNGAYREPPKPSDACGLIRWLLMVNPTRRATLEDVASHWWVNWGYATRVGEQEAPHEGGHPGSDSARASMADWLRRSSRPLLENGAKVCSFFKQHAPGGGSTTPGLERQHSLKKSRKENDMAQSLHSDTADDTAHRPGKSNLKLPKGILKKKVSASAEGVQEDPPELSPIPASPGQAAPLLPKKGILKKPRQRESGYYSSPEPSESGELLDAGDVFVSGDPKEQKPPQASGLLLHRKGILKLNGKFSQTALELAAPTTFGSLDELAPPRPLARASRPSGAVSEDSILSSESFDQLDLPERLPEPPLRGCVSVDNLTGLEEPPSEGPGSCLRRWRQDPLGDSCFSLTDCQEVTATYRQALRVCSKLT
The experiment in a line: NUAK2 enzymatic assay (radiometric, Eurofins). The note with it: radiometric, full-length recombinant enzyme. On the procedure: as §1

A further test concerns the target T3, NUAK1 (Homo sapiens, UniProt O60285).
T3 sequence (O60285 1-661): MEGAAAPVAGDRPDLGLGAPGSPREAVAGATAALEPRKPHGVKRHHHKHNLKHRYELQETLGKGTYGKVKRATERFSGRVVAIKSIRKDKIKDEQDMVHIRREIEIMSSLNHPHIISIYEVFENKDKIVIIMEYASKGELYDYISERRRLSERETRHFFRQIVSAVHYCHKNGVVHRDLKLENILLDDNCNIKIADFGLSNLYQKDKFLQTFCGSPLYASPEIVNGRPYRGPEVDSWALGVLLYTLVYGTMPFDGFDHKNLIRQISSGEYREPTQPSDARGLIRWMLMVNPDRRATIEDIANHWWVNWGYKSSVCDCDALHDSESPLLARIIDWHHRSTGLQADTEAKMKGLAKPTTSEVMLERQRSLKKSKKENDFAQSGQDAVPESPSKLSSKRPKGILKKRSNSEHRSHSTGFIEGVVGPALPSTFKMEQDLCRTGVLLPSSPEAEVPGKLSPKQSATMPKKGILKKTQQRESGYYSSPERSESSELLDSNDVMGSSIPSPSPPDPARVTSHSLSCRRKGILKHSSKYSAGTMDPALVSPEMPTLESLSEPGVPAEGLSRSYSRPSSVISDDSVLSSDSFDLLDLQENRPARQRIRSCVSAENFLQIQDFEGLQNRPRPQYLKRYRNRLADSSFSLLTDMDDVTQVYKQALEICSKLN
The experiment in a line: NUAK1 counter screen. On the procedure:
as §1

The structures appear in SMILES notation. Counter-ions that a name gives are not always drawn.

As for `C[C@@H]1CN(c2ccc(Nc3ncc(Cl)c(Nc4sccc4C(N)=O)n3)c(OC(F)F)c2)C[C@H](C)N1C` [Compound I-11, 2-((5-chloro-2-((2-(difluoromethoxy)-4-((3R,5S)-3,4,5-trimethylpiperazin-1-yl)phenyl)amino)pyrimidin-4-yl)amino)thiophene-3-carboxamide], the IC50 – broadly, the concentration that gives 50% inhibition – at Aurora A lay in the range of 101 to 1000 nM; on NUAK2 (h), 0.1 to 10 nM; on NUAK1, 11 to 100 nM.
In the same order, the values of `CC(C)N1CCN(c2ccc(Nc3ncc(Cl)c(Nc4ccsc4C(N)=O)n3)c(OC(F)F)c2)CC1` [Compound I-12, 3-((5-chloro-2-((2-(difluoromethoxy)-4-(4-isopropylpiperazin-1-yl)phenyl)amino)pyrimidin-4-yl)amino)thiophene-2-carboxamide hydrochloride] are 11 to 100 nM, 0.1 to 10 nM and 0.1 to 10 nM.
In the same order, the values of `CC(C)N1CCN(c2ccc(Nc3ncc(Cl)c(Nc4sccc4C(N)=O)n3)c(OC(F)F)c2)CC1` [Compound I-13, 2-((5-chloro-2-((2-(difluoromethoxy)-4-(4-isopropylpiperazin-1-yl)phenyl)amino)pyrimidin-4-yl)amino)thiophene-3-carboxamide] are 11 to 100 nM, 0.1 to 10 nM and 11 to 100 nM.
In the same order, the values of `CCN1CCN(c2ccc(Nc3ncc(Cl)c(Nc4cscc4C(N)=O)n3)c(OC(F)F)c2)CC1` [Compound I-14, 4-((5-chloro-2-((2-(difluoromethoxy)-4-(4-ethylpiperazin-1-yl)phenyl)amino)pyrimidin-4-yl)amino)thiophene-3-carboxamide] are 101 to 1000 nM, 0.1 to 10 nM and 0.1 to 10 nM.
`Cc1csc(Nc2nc(Nc3ccc(N4CCN(C)CC4)cc3OC(F)F)ncc2Cl)c1C(N)=O` [Compound I-15, 2-((5-chloro-2-((2-(difluoromethoxy)-4-(4-methylpiperazin-1-yl)phenyl)amino)pyrimidin-4-yl)amino)-4-methylthiophene-3-carboxamide]: the values for the IC50 on Aurora A, on NUAK2 (h) and at NUAK1 were 101 to 1000 nM, 11 to 100 nM and 11 to 100 nM, respectively.
In the case of `Cc1cnc(Nc2ccc(N3CCN(C(C)C)CC3)cc2OC(F)F)nc1Nc1ccsc1C(N)=O` [Compound I-17, 3-((2-((2-(difluoromethoxy)-4-(4-isopropylpiperazin-1-yl)phenyl)amino)-5-methylpyrimidin-4-yl)amino)thiophene-2-carboxamide], the IC50 at Aurora A lay in the range of 101 to 1000 nM; on NUAK2 (h) it was 11 to 100 nM; at NUAK1 it was 11 to 100 nM.
Consider `CN1C[C@H]2C[C@@H]1CN2c1ccc(Nc2ncc(Cl)c(Nc3sccc3C(N)=O)n2)c(OC(F)F)c1` [Compound I-18, 2-((5-chloro-2-((2-(difluoromethoxy)-4-((1R,4R)-5-methyl-2,5-diazabicyclo[2.2.1]heptan-2-yl)phenyl)amino)pyrimidin-4-yl)amino)thiophene-3-carboxamide], for which the IC50 at Aurora A was 101 to 1000 nM; at NUAK2 (h) it was 0.1 to 10 nM; against NUAK1, 11 to 100 nM.
In the same order, the values of `CN1CCN(c2ccc(Nc3ncc(Cl)c(Nc4sccc4C(N)=O)n3)c(OC(F)(F)F)c2)CC1` [Compound I-19, 2-((5-chloro-2-((4-(4-methylpiperazin-1-yl)-2-(trifluoromethoxy)phenyl)amino)pyrimidin-4-yl)amino)thiophene-3-carboxamide] are > 1000 nM, 11 to 100 nM and 101 to 1000 nM.
In the same order, the values of `CC(C)(C)N1CCN(c2ccc(Nc3ncc(Cl)c(Nc4ccsc4C(N)=O)n3)c(OC(F)F)c2)CC1` [Compound I-20, 3-((2-((4-(4-(tert-butyl)piperazin-1-yl)-2-(difluoromethoxy)phenyl)amino)-5-chloropyrimidin-4-yl)amino)thiophene-2-carboxamide] are 101 to 1000 nM, 0.1 to 10 nM and 0.1 to 10 nM.
In the same order, the values of `C[C@H]1CN(c2ccc(Nc3ncc(Cl)c(Nc4ccsc4C(N)=O)n3)c(OC(F)F)c2)CCN1C` [Compound I-21, (S)-3-((5-chloro-2-((2-(difluoromethoxy)-4-(3,4-dimethylpiperazin-1-yl)phenyl)amino)pyrimidin-4-yl)amino)thiophene-2-carboxamide] are 11 to 100 nM, 0.1 to 10 nM and 0.1 to 10 nM.
With `CC(C)(C)N1CCN(c2ccc(Nc3ncc(Cl)c(Nc4sccc4C(N)=O)n3)c(OC(F)F)c2)CC1` [Compound I-22, 2-((2-((4-(4-(tert-butyl)piperazin-1-yl)-2-(difluoromethoxy)phenyl)amino)-5-chloropyrimidin-4-yl)amino)thiophene-3-carboxamide], the IC50 on Aurora A, on NUAK2 (h) and at NUAK1 was 11 to 100 nM each time.
For `C[C@H]1CN(c2ccc(Nc3ncc(Cl)c(Nc4sccc4C(N)=O)n3)c(OC(F)F)c2)CCN1C` [Compound I-23, (S)-2-((5-chloro-2-((2-(difluoromethoxy)-4-(3,4-dimethylpiperazin-1-yl)phenyl)amino)pyrimidin-4-yl)amino)thiophene-3-carboxamide], the concentration for half-maximal inhibition (IC50) on Aurora A is 101 to 1000 nM; at NUAK2 (h) it was 11 to 100 nM; at NUAK1 it was 11 to 100 nM.
In the case of `NC(=O)c1sccc1Nc1nc(Nc2ccc(N3CCOCC3)cc2OC(F)F)ncc1Cl` [Compound I-24, 3-((5-chloro-2-((2-(difluoromethoxy)-4-morpholinophenyl)amino)pyrimidin-4-yl)amino)thiophene-2-carboxamide], the half-inhibitory concentration (IC50) on Aurora A, at NUAK2 (h) and against NUAK1 was 11 to 100 nM in each case.
Take `CN1CCC(c2ccc(Nc3ncc(Cl)c(Nc4ccsc4C(N)=O)n3)c(OC(F)F)c2)CC1` [Compound I-25, 3-((5-chloro-2-((2-(difluoromethoxy)-4-(1-methylpiperidin-4-yl)phenyl)amino)pyrimidin-4-yl)amino)thiophene-2-carboxamide]: the IC50 on Aurora A lay within 101 to 1000 nM; at NUAK2 (h), 11 to 100 nM; on NUAK1 it was 11 to 100 nM.
As for `CN1CCc2cc(OC(F)F)c(Nc3ncc(Cl)c(Nc4ccsc4C(N)=O)n3)cc2C1` [Compound I-26, 3-((5-chloro-2-((6-(difluoromethoxy)-2-methyl-1,2,3,4-tetrahydroisoquinolin-7-yl)amino)pyrimidin-4-yl)amino)thiophene-2-carboxamide], the IC50 on Aurora A was in the range of 101 to 1000 nM; at NUAK2 (h), 11 to 100 nM; at NUAK1 it was 101 to 1000 nM.
On to `CN1CCN(c2ccc(Nc3ncc(C(F)(F)F)c(Nc4ccsc4C(N)=O)n3)c(OC(F)F)c2)CC1` [Compound I-27, 3-((2-((2-(difluoromethoxy)-4-(4-methylpiperazin-1-yl)phenyl)amino)-5-(trifluoromethyl)pyrimidin-4-yl)amino)thiophene-2-carboxamide], for which the results for the IC50 on Aurora A, on NUAK2 (h) and at NUAK1 were 101 to 1000 nM, 0.1 to 10 nM and 0.1 to 10 nM, respectively.
